# From patent US11945822B2, “Pyrazolo-triazine and/or pyrazolo-pxrimidine derivatives as selective inhibitor of cyclin dependent kinase” (QURIENT CO., LTD., priority 2018, dated 2024)
# pIC50: −log10 of the molar value.
# Legend:
# CDK2/Cyclin A = target: T1, CDK2/Cyclin A (Homo sapiens, UniProt P24941); assay: Enzymatic assay for CDK2 (FRET based LANCE Ultra kinase assay); type: biochemical; conditions: read-out: CDK2 enzymatic activity (IC50 range)
# T1 construct: purchased Invitrogen PV6290
# How it was run: (§1)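 LANCE Ultra TR-FRET: ULight-MBP peptide (68 nM) with ATP at Km, […], 60 min at 23° C. EDTA plus Eu-anti-phospho-MBP added, another 60 min, then 665/615 nm emission read. Compounds tested as 8-dose 4-fold DMSO dilutions.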
# A2780 = assay: Cellular A2780 viability assay (CellTiter-Glo, 72 hours); type: cell-based; conditions: Homo sapiens
# How it was run: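 Cells seeded at 1×10^4/well (MM.1S), 5×10^3 (OVCAR-3) or 1×10^3 (A2780), grown in RPMI-1640 with 10% FBS. After 24 h, compound added at 0.0015–10 uM, final DMSO below 0.1%, for 72 h at 37° C. Viability read by CellTiter-Glo luminescence in duplicate, with curve fitting.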
# H460 = assay: Cellular H460 viability assay (CellTiter-Glo, 72 hours); type: cell-based; conditions: Homo sapiens, NCI-H460
# How it was run: (§2)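 Steps: seed cells at per-line density; add compound, DMSO vehicle kept under 0.1% final; incubate 72 h, 37 °C, 5% CO2; lyse with CellTiter-Glo and read luminescence; run in duplicate.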
# MV4-11 = assay: Cellular MV4-11 viability assay (CellTiter-Glo, 72 hours); type: cell-based; conditions: Homo sapiens
# How it was run: as §2
# OVCAR-3 = assay: Cellular OVCAR-3 viability assay (CellTiter-Glo, 72 hours); type: cell-based; conditions: Homo sapiens
# Description: Human T-cell acute lymphoblastic leukemia cell line, MOLT-4 (ATCC, Cat #CRL-1582), Human multiple myeloma cell line, RPMI-8226 (Invitrogen, Cat #22400-089) and MM.1S (ATCC, Cat #CRL-2974), NSCLC (Non-small cell lung cancer) cell line H460 (ATCC, Cat #HTB-177), Human colon colorectal carcinoma cell line HCT116 (ATCC, Cat #CCL-247), Human acute monocytic leukemia cell line MV4-11 (ATCC, Cat #CRL-9591), OVCAR-3 (ATCC, Cat #HTB-161) and A2780 (ECACC, Cat #93112519) were obtained from ATCC. Cells were grown in RPMI-1640 media (Invitrogen, Cat #22400-089) supplemented with 10% FBS (Invitrogen, Cat #10099141) and 1% penicillin/streptomycin (Invitrogen, Cat #15070063) and cultured at 37° C., 5% CO2 in a humidified chamber. All cell lines were routinely tested for mycoplasma.
# The effect of the CDK7 inhibitor to inhibit the growth of target cancer cells was evaluated through the 72 hours time period of viability assay. Briefly, the candidate cell line ware plated in 96 well plate at the following density of cells respectively. 1×10^4 cells/well for MOLT-4, RPMI-8226, MV4-11 and MM.1S, 5×10^3 for H460, HCT116 and OVCAR-3 and IX 10^3 for A2780. After 24 hours, the cells were treated with various concentrations of the compound (ranging from 0.0015 uM to 10 uM). DMSO solvent without compound served as a control and final DMSO concentration less than 0.1%. After 72 hours of incubation at 37° C., 5% CO2 incubator, cells were analyzed for the viability using the CellTiter-Glo Luminescent Cell Viability Assay (Promega, Cat #G7570). All viability assays were performed in duplicate and Luminescence was read using an Envision (Perkin Elmer, USA). Data was analyzed using XLfit software.
# CDK5/p25 = target: T2, CDK5/p25 (Homo sapiens, UniProt Q00535); assay: Enzymatic assay for CDK5 (FRET based LANCE Ultra kinase assay); type: biochemical; conditions: read-out: CDK5 enzymatic activity (IC50 range)
# T2 construct: purchased Invitrogen PR8543B
# T2 sequence (Q00535 whole entry): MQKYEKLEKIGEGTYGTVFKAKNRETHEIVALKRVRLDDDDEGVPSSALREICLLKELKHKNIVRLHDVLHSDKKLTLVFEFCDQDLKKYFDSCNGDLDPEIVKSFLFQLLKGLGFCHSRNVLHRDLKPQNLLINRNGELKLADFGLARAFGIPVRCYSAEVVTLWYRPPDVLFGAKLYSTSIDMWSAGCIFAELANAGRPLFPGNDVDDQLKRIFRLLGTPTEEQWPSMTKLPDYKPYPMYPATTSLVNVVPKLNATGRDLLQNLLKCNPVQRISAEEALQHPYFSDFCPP
# T2 sequence (Q15078 99-307 partner limits assumed): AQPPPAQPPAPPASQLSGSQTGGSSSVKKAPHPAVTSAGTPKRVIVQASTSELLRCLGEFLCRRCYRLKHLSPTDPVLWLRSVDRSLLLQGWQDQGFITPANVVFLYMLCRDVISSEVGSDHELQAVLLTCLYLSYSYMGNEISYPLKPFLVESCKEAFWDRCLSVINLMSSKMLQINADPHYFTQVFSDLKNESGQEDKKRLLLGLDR
# How it was run: as §1
# CDK1/Cyclin B = target: T3, CDK1/Cyclin B (Homo sapiens, UniProt P06493); assay: Enzymatic assay for CDK1 (FRET based LANCE Ultra kinase assay); type: biochemical; conditions: read-out: CDK1 enzymatic activity (IC50 range)
# T3 construct: purchased Invitrogen PR4768C
# T3 sequence (P06493 whole entry): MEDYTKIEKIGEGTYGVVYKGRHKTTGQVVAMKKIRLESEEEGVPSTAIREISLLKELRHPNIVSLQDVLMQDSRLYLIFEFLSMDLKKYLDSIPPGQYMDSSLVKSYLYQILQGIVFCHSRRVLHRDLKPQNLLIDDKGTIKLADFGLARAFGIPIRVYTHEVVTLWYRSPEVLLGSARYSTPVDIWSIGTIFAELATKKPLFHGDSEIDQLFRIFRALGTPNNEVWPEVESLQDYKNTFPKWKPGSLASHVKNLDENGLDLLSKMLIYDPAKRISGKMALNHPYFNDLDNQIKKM
# T3 sequence (P14635 whole entry partner): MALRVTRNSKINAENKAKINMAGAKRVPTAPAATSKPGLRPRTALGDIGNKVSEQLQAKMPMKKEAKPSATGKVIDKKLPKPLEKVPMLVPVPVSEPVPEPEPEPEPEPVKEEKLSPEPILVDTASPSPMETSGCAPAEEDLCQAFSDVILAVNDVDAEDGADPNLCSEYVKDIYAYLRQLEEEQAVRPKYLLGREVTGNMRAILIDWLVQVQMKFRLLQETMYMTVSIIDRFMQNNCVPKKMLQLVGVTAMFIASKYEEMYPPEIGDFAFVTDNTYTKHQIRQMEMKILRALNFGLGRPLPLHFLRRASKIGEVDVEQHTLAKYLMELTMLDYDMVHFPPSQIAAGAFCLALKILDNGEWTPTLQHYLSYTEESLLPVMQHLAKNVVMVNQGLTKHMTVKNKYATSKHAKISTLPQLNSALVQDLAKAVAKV
# How it was run: as §1
compound,measurement,setting,value
CC(C)c1cnn2c(NCc3c(Cl)cccc3-n3ccc(C(C)(C)O)n3)nc(N3CCC(N)CC3)nc12 [Compound 210],pIC50,CDK2/Cyclin A,< 6.00
same,pIC50,A2780,≥ 6.00
same,pIC50,H460,> 6.00
same,pIC50,MV4-11,> 6.00
same,pIC50,OVCAR-3,≥ 6.00
same,pIC50,CDK5/p25,6.00 to 7.00
same,pIC50,CDK1/Cyclin B,< 6.00
